# Source: patent publication US9198890B2, “Compositions and methods for treating and preventing coronary heart disease” (priority 2011, dated 2015)
# Where “and” joins values, the source holds several entries; their conditions need not be identical. Equal entries are not always repeated.
# Columns and labels:
# [1] = test system: LDL-C; assay: PROSPER study: lipid (LDL-C, HDL-C, triglyceride) response to Pravastatin 40 mg/day, overall and by SLCO1B1/LXRA genotype; format: in vivo, human; settings: for Adjusted mean percent LDL-cholesterol reduction: mean ± S.D.
# Experimental: The effect of SNPs at nucleotide positions 388 (e.g. A>G) and 625 (e.g. T>C) of the SLCO1B1 gene and also at nucleotide position −115 (e.g. G>A) of the LXRA gene on responsiveness to Pravastatin in subjects of various genotypes was assessed by analyzing the correlation of different SNP genotypes with the 6 month and 12 month changes in TC and LDL-C levels in treated subjects, as shown below in Table 5. Neither the presence of the LXRA SNP at nucleotide position −115 nor the SLCO1B1 SNP at nucleotide position 388 were associated with lipid lowering. […] The percentage reductions in LDL-C given are for the 6 month time point (Table 5).
# Biochemical and DNA analysis: Total cholesterol (TC), HDL-C, and triglycerides were assessed in subjects after an overnight fast at 6 months, and at 12 months, and LDL-C was calculated by the Friedewald formula, as previously described (Shepherd J et al. (2002) Lancet 360:1623-30). Apolipoprotein B (apoB) was measured only at baseline as described. DNA was isolated from cells from this cohort, and DNA from 5,783 subjects participating in this study was also available. ApoE phenotype was determined on plasma samples by Western blotting, using the method of Havekes et al. in the central laboratory of the Royal Infirmary in Glasgow, Scotland (Havekes L M et al. A rapid micro method for apolipoprotein E phenotyping directly in serum. J Lipid Res (1987) 28:455-63). Subjects were classified according to the presence of apoE2, apoE3, or apoE4 bands on gel blotting (Havekes L M et al. (1987) J Lipid Res 28:455-63).
# DNA analysis was conducted by genotyping two single nucleotide polymorphisms (SNPs) of the SLCO1B1 gene—388A>G (rs2306283) and 511T>C (rs4149056)—using standard methods (e.g. Taq Man® SNPs genotyping assays by Applied Biosystems, Foster City, Calif.). The custom assay identification numbers for these analyses were C—1901697—20 and C—30633906—10, respectively. Additionally, DNA analysis was also conducted by genotyping one SNP of the LXRA gene, rs12221497, and the custom assay identification number for this analysis was C—30887860—10. The end points were ascertained after PCR amplification was performed using standard methods (e.g. an Applied Biosystems 7900 HT Sequence Detection System). Genotypes with quality scores below the 95% threshold were repeated and 5% blinded replicates for genotype determinations were performed. In addition, a total of 119 subjects (˜2.2% of the sample size) who had the apoE4/2 phenotype were excluded from these analyses, as well as 246 subjects who had missing apoE phenotype. These subjects were excluded because apoE phenotype or genotype can affect statin-induced LDL-C lowering response, as well as CHD risk, in an allele dependent manner. For example, subjects carrying the apoE4 allele having the greatest response in terms of LDL-C lowering and the highest CHD risk, however, apoE2 and apoE4 phenotype have opposite effects in this regard.
# Statistical analysis: Observed genotype frequencies were compared with those expected under Hardy-Weinberg equilibrium using a χ2 test. For data analysis, multivariable analysis of covariance (ANCOVA) was performed to detect associations between the lipoprotein levels at baseline as well as changes in response to the treatment with Pravastatin at 6 months and with SLCO1B1 genotypes adjusted for gender, body mass index, age, alcohol, smoking, diabetes, apoE phenotype, and country of origin, since subjects participating in PROSPER were either from Scotland, Ireland, or the Netherlands. […]
# [2] = test system: elderly individuals at risk of vascular disease; assay: PROSPER study: incidence of CHD death or nonfatal MI on trial; format: in vivo, human; settings: for Pravastatin HR, hazards ratio (95% confidence intervals), CHD death or nonfatal MI: Pravastatin group
# Experimental: Statistical analysis: Observed genotype frequencies were compared with those expected under Hardy-Weinberg equilibrium using a χ2 test. For data analysis, multivariable analysis of covariance (ANCOVA) was performed to detect associations between the lipoprotein levels at baseline as well as changes in response to the treatment with Pravastatin at 6 months and with SLCO1B1 genotypes adjusted for gender, body mass index, age, alcohol, smoking, diabetes, apoE phenotype, and country of origin, since subjects participating in PROSPER were either from Scotland, Ireland, or the Netherlands. Prevalence at baseline of myocardial infarction (MI) and all types of vascular disease (history of angina, claudication, MI, stroke, transient ischemic attack, peripheral arterial disease surgery, or amputation for vascular disease more than 6 months before study entry) at baseline, as well as incidence of primary endpoints (CHD death or nonfatal MI or fatal non-fatal stroke), and all cardiovascular events (primary endpoints and coronary artery bypass grafting, coronary angioplasty, and peripheral artery surgery or angioplasty), were compared between carriers of different SLCO1B1 SNP genotypes using multivariable logistic regression analysis in all subjects and stratified by gender and treatment. All analyses were fully adjusted for age, gender, country, history of vascular disease, body mass index, history of diabetes, as well as history of hypertension, alcohol use, current smoking, and apoE phenotype. To evaluate the modifying effects of genotypes and gender on the response to treatment, gene-treatment and gene-gender interaction terms were added to the regression models. Lewontin's D value was calculated to assess the linkage disequilibrium (LD) between the two SNPs of interest (Lewontin R C. The interaction of selection and linkage. II. Optimum models. Genetics 1964; 50:757-82). There was no interaction between these SNPs and also no interaction between these SNPs and apoE genotype. All analyses were performed using SAS/STAT and SAS/Genetics [including proc haplotype procedure] (SAS Version 9.1, SAS Institute Inc., Cary, N.C.). A two-sided p<0.05 was considered statistically significant.
# [3] = test system: elderly individuals at risk of vascular disease; assay: PROSPER study: adverse events (myalgia, rhabdomyolysis, creatine kinase)
# Text: In this randomized study with 5,804 subjects, 2,913 subjects received placebo and 2,891 received Pravastatin (three of whom refused medication). […] This adverse event rate was very similar to the placebo group where 116 subjects discontinued medication because of non-fatal adverse events. […] At the 3 month visit there no subjects that had creatine kinase levels >10 the upper limits of normal.
# Study Subjects: The results and the methodology used in the PROspective Study of Pravastatin in the Elderly at Risk (PROSPER) study have been previously described (see e.g., Shepherd J et al. PROspective Study of Pravastatin in the Elderly at Risk. Pravastatin in elderly individuals at risk of vascular disease (PROSPER): a randomized controlled trial. Lancet (2002) 360:1623-30 and Shepherd J et al. The design of a prospective study of Pravastatin in the Elderly at Risk (PROSPER). PROSPER Study Group. PROspective Study of Pravastatin in the Elderly at Risk. Am J Cardiol (1999) 84:1192-97).
# In the present study 2,804 men and 3,000 women between the ages of 70 and 82 with pre-existing vascular disease (n=2,404) or at least one of three major vascular risk factors (diabetes n=575, smoking n=1,433, or hypertension n=3,360) were randomized to Pravastatin 40 mg/day (n=2,891) or placebo (n=2,913) and followed up on for 3.2 years, on average. […] This effect translates into an estimated 30% risk reduction in CHD events over 5 years, which is consistent with other statin trials. […] For subjects that were judged to have good compliance (i.e. taking medication more than 75% of the time), these alterations on the lipid levels were even greater: −34% […], +5% (increased HDL-C), and −13% (decreased triglycerides), respectively. […] Lipid levels were similar at onset of the study in subjects randomized to Pravastatin or placebo.
# [4] = test system: LDL-C; assay: PROSPER study: lipid (LDL-C, HDL-C, triglyceride) response to Pravastatin 40 mg/day, overall and by SLCO1B1/LXRA genotype; format: in vivo, human; settings: mean ± S.D.
# [5] = single oral dose of 40 mg, 32 subjects; cited from earlier work
# [6] = 16 healthy volunteers, multiple-dose; cited from earlier work
# [7] = subjects with good compliance (medication more than 75% of the time)
smiles,measurement,setting,value
"CC[C@H](C)C(=O)O[C@H]1C[C@H](O)C=C2C=C[C@H](C)[C@H](CC[C@@H](O)C[C@@H](O)CC(=O)O)[C@H]21 [Pravastatin, pravastatin]",Adjusted mean percent LDL-cholesterol reduction,"[1]; 6 months, LXRA 115 G > A genotype AA",−37.4 ± 10.9%
same,Adjusted mean percent LDL-cholesterol reduction,"[1]; 6 months, LXRA 115 G > A genotype GA",−36.4 ± 10.7%
same,Adjusted mean percent LDL-cholesterol reduction,"[1]; 6 months, LXRA 115 G > A genotype GG",−36.6 ± 10.7%
same,Adjusted mean percent LDL-cholesterol reduction,"[1]; 6 months, SLCO1B1 388 A > G genotype AA",−36.7 ± 10.5%
same,Adjusted mean percent LDL-cholesterol reduction,"[1]; 6 months, SLCO1B1 388 A > G genotype AG",−36.6 ± 10.7%
same,Adjusted mean percent LDL-cholesterol reduction,"[1]; 6 months, SLCO1B1 388 A > G genotype GG",−36.2 ± 11.6%
same,Adjusted mean percent LDL-cholesterol reduction,"[1]; 12 months, LXRA 115 G > A genotype AA",−35.3 ± 11.2%
same,Adjusted mean percent LDL-cholesterol reduction,"[1]; 12 months, LXRA 115 G > A genotype GA",−35.1 ± 11.6%
same,Adjusted mean percent LDL-cholesterol reduction,"[1]; 12 months, LXRA 115 G > A genotype GG",−35.5 ± 12.1%
same,Adjusted mean percent LDL-cholesterol reduction,"[1]; 12 months, SLCO1B1 388 A > G genotype AA",−35.9 ± 11.2%
same,Adjusted mean percent LDL-cholesterol reduction,"[1]; 12 months, SLCO1B1 388 A > G genotype AG",−35.3 ± 12.3%
same,Adjusted mean percent LDL-cholesterol reduction,"[1]; 12 months, SLCO1B1 388 A > G genotype GG",−34.3 ± 12.8%
same,Adjusted mean percent LDL-cholesterol reduction,"[1]; 12 months, SLCO1B1 625 T > C genotype CC",−31.8 ± 11.7%
same,Adjusted mean percent LDL-cholesterol reduction,"[1]; 12 months, SLCO1B1 625 T > C genotype TC",−34.6 ± 12.5%
same,HDL-C increase versus baseline,[1]; subjects placed on Pravastatin,5%
same,triglycerides decrease versus baseline,[1]; subjects placed on Pravastatin,12%
same,alteration printed as risk reduction for CHD,[1]; [7],−34%
same,decreased triglycerides,[1]; [7],−13%
same,increased HDL-C,[1]; [7],+5%
same,"Pravastatin HR, hazards ratio (95% confidence intervals), CHD death or nonfatal MI",[2]; 388 A > G genotype AA (reference genotype),1
same,"Pravastatin HR, hazards ratio (95% confidence intervals), CHD death or nonfatal MI",[2]; 388 A > G genotype AG versus AA,1.13
same,"Pravastatin HR, hazards ratio (95% confidence intervals), CHD death or nonfatal MI",[2]; 388 A > G genotype GG versus AA,1.12
same,"Pravastatin HR, hazards ratio (95% confidence intervals), CHD death or nonfatal MI",[2]; 625 T > C genotype CC versus TT,0.64
same,"Pravastatin HR, hazards ratio (95% confidence intervals), CHD death or nonfatal MI",[2]; 625 T > C genotype TC versus TT,0.99
same,"Pravastatin HR, hazards ratio (95% confidence intervals), CHD death or nonfatal MI",[2]; 625 T > C genotype TT (reference genotype),1
same,estimated risk reduction in CHD events,"[2]; over 5 years, translated from the 3.2 year effect",30%
same,reported cases of myalgia,"[3]; both, human, in vivo, 3.2 years",36 cases
same,association of the SLCO1B1 rs4149056 SNP with myalgia,[3]; in vivo,no association
same,reported cases of rhabdomyolysis,[3]; in vivo,no reported cases
same,subjects who discontinued medication because of non-fatal adverse events,"[3]; of 2,888 subjects started on Pravastatin, 116 in placebo group",107 subjects
same,Adjusted mean percent LDL-cholesterol reduction,"[4]; 6 months, SLCO1B1 625 T > C genotype CC, Pravastatin 40 mg/day",−31.8% and −31.8 ± 12.8%
same,Adjusted mean percent LDL-cholesterol reduction,"[4]; 6 months, SLCO1B1 625 T > C genotype TC, Pravastatin 40 mg/day",−36.0% and −36.0 ± 10.4%
same,Adjusted mean percent LDL-cholesterol reduction,"[4]; 6 months, SLCO1B1 625 T > C genotype TT, Pravastatin 40 mg/day",−37.0% and −37.0 ± 10.8%
same,Adjusted mean percent LDL-cholesterol reduction,"[4]; 12 months, SLCO1B1 625 T > C genotype TT",−35.9 ± 11.8%
same,"areas under the curve of pravastatin blood levels, CC versus wildtype TT SLCO1B1 genotype",[5],significantly greater
same,plasma pravastatin levels with SLCO1B1 haplotype as compared to other haplotypes,[6],doubling
